Source: US7067155B2, “Anti-inflammatory humate compositions and methods of use thereof” (TBNI, Inc., priority 2003, dated 2006)

Test system: carrageenan-induced edema
Experiment: Carrageenan-induced hind paw edema in rats, humate in chow for 37 days with or without indomethacin (Example 3)
Type: in vivo, rat
Conditions: indomethacin only, 3 mg/kg subcutaneously 30 min before carrageenan; P<0.05
Text: Male Sprague Dawley rats weighing approximately 50 g were purchased from Harlan U.S. and housed in wire cages in the animal facility at Mercer University School of Pharmacy. The animals were given a short period of time to acclimate to the new environment and received powdered rat chow from Purina and water ad libitum. At the beginning of the experimental period, the rats were divided into six groups of eight each. Control and indomethacin only groups received only powdered rat chow for the entire length of the experiment. For the four other groups, insoluble granular Menefee Humate® was mixed with the powdered rat chow and placed in feeders. Rats received chow with either 0.1%, 0.5% or 1.0% insoluble, granular Menefee Humate® by weight. After 37 days of receiving humate in their food, the animals weighed approximately 278 g, which in an appropriate size for inducing inflammation. An amount of indomethacin sufficient to achieve 50% inhibition of carrageenan-induced edema (3 mg/kg) was administered to the indomethacin only group and to the 0.1% humate plus indomethacin group. The indomethacin was administered subcutaneously 30 minutes before the administration of carageenan. The rats were then injected in one hind paw with carrageenan (2%). After three hours, the hind paws were measured by mercury displacement.

## COc1ccc2c(c1)c(CC(=O)O)c(C)n2C(=O)c1ccc(Cl)cc1 [indomethacin]
  inhibition of carrageenan-induced edema: ~50%
